{"source": "patent US10660900B2", "about": "(priority 2014, dated 2020)", "key": {"[1]": {"assay": "Time to resumption of opioid substitution treatment and withdrawal scales (COWS, SOWS, OOWS)", "assay_type": "in vivo, human"}, "[2]": {"target": "human OPRM (Homo sapiens, UniProt P35372)", "sequence (P35372 whole entry)": "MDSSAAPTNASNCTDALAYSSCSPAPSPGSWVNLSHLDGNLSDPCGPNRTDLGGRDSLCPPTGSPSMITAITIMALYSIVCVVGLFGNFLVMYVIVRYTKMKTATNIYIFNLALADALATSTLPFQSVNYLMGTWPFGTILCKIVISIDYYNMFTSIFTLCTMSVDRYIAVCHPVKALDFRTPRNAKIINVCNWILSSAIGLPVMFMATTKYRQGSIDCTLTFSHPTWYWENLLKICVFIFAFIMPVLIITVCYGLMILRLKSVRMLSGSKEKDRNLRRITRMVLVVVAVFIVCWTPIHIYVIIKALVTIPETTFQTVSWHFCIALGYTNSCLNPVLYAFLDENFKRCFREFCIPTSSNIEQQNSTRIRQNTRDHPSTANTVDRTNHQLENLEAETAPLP", "assay_type": "cell-based", "parameters": "host or cells: CHO-K1"}, "[3]": {"assay": "Cold pressor test in healthy volunteers", "assay_type": "in vivo, human", "conditions": "3-60 mg single oral doses versus placebo; hand immersion duration and VAS pain score", "description": "Analgesic effect was assessed based on duration of hand immersion in ice water and on visual analog scale (VAS) pain scores upon hand removal from the water bath.\nSafety and tolerability of noribogaine were tested in the group of volunteers from Example 1. Cold pressor testing was conducted in 1° C. water according to the method of Mitchell et al. (J Pain 5:233-237, 2004) pre-dose, 6, 24, 48, 72 and 216 hours post-dosing. Safety evaluations included clinical monitoring, recording of adverse events (AEs), safety laboratory tests, vital signs, ECG telemetry from −2 h to 6 h after dosing, and 12-lead electrocardiograms (ECGs) up to 216 hours post-dosing."}, "[4]": {"target": "calf OPRM (Bos taurus, UniProt P79350)", "sequence (P79350 whole entry)": "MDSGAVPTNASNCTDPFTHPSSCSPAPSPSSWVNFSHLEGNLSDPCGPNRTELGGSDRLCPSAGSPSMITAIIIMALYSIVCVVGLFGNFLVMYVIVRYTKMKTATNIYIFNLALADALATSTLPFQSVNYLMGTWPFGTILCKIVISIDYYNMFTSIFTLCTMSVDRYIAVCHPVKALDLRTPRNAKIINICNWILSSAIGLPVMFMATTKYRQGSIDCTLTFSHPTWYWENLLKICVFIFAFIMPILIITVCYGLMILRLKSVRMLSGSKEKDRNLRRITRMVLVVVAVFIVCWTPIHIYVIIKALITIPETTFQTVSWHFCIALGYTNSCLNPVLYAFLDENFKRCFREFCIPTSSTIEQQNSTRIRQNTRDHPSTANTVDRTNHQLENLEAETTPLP", "conditions": "cited from earlier work; for Ki: read-out: Ki"}, "[5]": {"target": "T1, OPRK (Homo sapiens, UniProt P41145)", "T1 sequence (P41145 whole entry)": "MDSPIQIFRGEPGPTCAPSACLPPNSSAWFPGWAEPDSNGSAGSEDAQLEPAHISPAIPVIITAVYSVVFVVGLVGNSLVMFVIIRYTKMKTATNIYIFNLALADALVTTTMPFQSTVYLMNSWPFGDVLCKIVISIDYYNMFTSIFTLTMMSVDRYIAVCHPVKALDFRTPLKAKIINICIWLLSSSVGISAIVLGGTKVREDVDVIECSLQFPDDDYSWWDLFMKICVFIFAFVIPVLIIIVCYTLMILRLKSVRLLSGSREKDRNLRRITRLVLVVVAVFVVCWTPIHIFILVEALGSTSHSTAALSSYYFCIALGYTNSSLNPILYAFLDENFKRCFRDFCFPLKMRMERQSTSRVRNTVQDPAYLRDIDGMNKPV", "assay": "biochemical", "parameters": "expressed in transfected cells; host or cells: CHO-K1"}, "[6]": {"target": "T1, OPRK", "assay": "Bias quantification G-protein/Beta-arrestin2", "parameters": "expressed in transfected cells; host or cells: CHO-K1", "description": "Coupling efficiency (e-coupling) values indicated the relationship between the apparent binding affinity Ki versus the apparent functional potency EC50 of a given agonist ligand and used the equation pKi-pEC50. […] For inhibitory ligands, e-signal was calculated using maximal level of inhibition (Imax) normalized from 0 (basal, buffer) to 1 (agonist without inhibitor). Bias-coupling (quantification of pathway bias) was evaluated by subtracting the EC50 or the Ke issued from the G-protein pathway assays by those issued from β-arrestin pathway assays for a given ligand and in a linear (nM) scale. Bias-efficacy in favor of the G-protein pathway was evaluated by dividing the functional activation and the functional inhibition maximum responses (e-signal) from the G-protein pathway by the beta-arrestin pathway assays for a given ligand."}, "[7]": {"conditions": "rats; centrally mediated; Baumann, Rothman et al. 2001; cited from earlier work"}, "[8]": {"target": "T1, OPRK", "assay": "cell-based", "parameters": "host or cells: CHO-K1"}}, "note": "Values joined by “and” are separate entries in the source; they are usually repeats but may differ in a detail not shown here. Equal entries are not always repeated. Where two headings read alike, the source gives them in different places."}
{"smiles": "CC[C@H]1CC2C[C@H]3c4[nH]c5ccc(O)cc5c4CCN(C2)C13", "note": "[Noribogaine, noribogaine]", "values": [{"measurement": "withdrawal symptoms (COWS, OOWS, SOWS), first six hours after dosing", "setting": "[1]; 120 mg noribogaine", "result": "fewer withdrawal symptoms than the other patients"}, {"measurement": "average time to resumption of opioids (OST)", "setting": "[1]; single 120 mg dose", "result": "greater than 20 hours"}, {"measurement": "Efficacy", "setting": "[2]", "result": 3, "unit": "%"}, {"measurement": "Efficacy (inhibition)", "setting": "[2]", "result": "−100~ %"}, {"measurement": "agonism of β-Arrestin-2 recruitment at OPRM", "setting": "[2]", "result": "not an agonist at OPRM"}, {"measurement": "e-coupling (pKi-pKe)", "setting": "[2]", "result": "~1.10"}, {"measurement": "inhibition of agonist response", "setting": "[2]", "result": "60-100%"}, {"measurement": "pEC50", "setting": "[2]", "result": 5.9}, {"measurement": "analgesic effect in the cold pressor test", "setting": "[3]", "result": "no analgesic effect"}, {"measurement": "Ki", "setting": "[4]; calf OPRM", "result": 1.52, "unit": "µM"}, {"measurement": "pKi", "setting": "[4]; calf receptor, literature", "result": 5.6}, {"measurement": "Ki", "setting": "[4]; calf receptor, literature", "result": 2.66, "unit": "µM"}, {"measurement": "Efficacy (Emax)", "setting": "[5]", "result": 70, "unit": "%"}, {"measurement": "Efficacy (inhibition)", "setting": "[5]", "result": "−30% and −25%"}, {"measurement": "e-coupling (pKi-pEC50)", "setting": "[5]", "result": 1.08}, {"measurement": "e-coupling, G-protein Pathway", "setting": "[5]", "result": "1.72 and 1.08"}, {"measurement": "own reduced signal level to which rival agonist signal is leveled down", "setting": "[5]", "result": 70, "unit": "%"}, {"measurement": "pEC50", "setting": "[5]", "result": 5.1}, {"measurement": "Ki", "setting": "[5]; Ke", "result": "12 µM and 24 µM"}, {"measurement": "EC50", "setting": "[5]; read-out: EC50", "result": "8.75 µM and 8.7 µM"}, {"measurement": "Emax", "setting": "[5]; read-out: Efficacy (Emax)", "result": "72 ± 3.8", "unit": "%"}, {"measurement": "efficacy bias relative to 6′GNTI", "setting": "[6]", "result": 2.4, "unit": "×"}, {"measurement": "Bias-coupling, Bias G-protein/Beta-arrestin2", "setting": "[6]; Activation", "result": 32}, {"measurement": "Bias-efficacy, Bias G-protein/Beta-arrestin2", "setting": "[6]; Activation", "result": 0.59}, {"measurement": "Bias-coupling, Bias G-protein/Beta-arrestin2", "setting": "[6]; Inhibition", "result": 144}, {"measurement": "Bias-efficacy, Bias G-protein/Beta-arrestin2", "setting": "[6]; Inhibition", "result": "−0.35"}, {"measurement": "release of prolactin", "setting": "[7]", "result": "triggered the release of prolactin"}, {"measurement": "EC50", "setting": "[8]", "result": 0.265, "unit": "µM"}, {"measurement": "e-coupling (pKi-pEC50)", "setting": "[8]; Activation", "result": "−0.43"}, {"measurement": "e-coupling, Beta-Arrestin2 Pathway", "setting": "[8]; Activation", "result": "−0.43"}, {"measurement": "e-signal, Beta-Arrestin2 Pathway", "setting": "[8]; Activation", "result": 0.13}, {"measurement": "pEC50", "setting": "[8]; Activation", "result": 6.6}, {"measurement": "Emax", "setting": "[8]; CHO-K1, read-out: Efficacy (Emax)", "result": "12.6 ± 3", "unit": "%"}, {"measurement": "inhibition of agonist response", "setting": "[8]; Dynorphin A at EC80", "result": "~60", "unit": "%"}, {"measurement": "e-coupling, Beta-Arrestin2 Pathway", "setting": "[8]; Inhibition", "result": "−0.44"}, {"measurement": "e-signal, Beta-Arrestin2 Pathway", "setting": "[8]; Inhibition", "result": 0.60}, {"measurement": "e-coupling (pKi-pKe)", "setting": "[8]; inhibitory component", "result": "−0.44"}, {"measurement": "Efficacy (inhibition)", "setting": "[8]; inhibitory component against Dynorphin A", "result": "−60~ %"}]}
